# System: HCI-010 (organoid from a breast cancer xenograft)
# Assay: CTG-3D luminescence at 96 h relative to day-0 seeding control (ratio to day 0); higher = more growth / less cytotoxicity; PDxO 3D drug screen, 96 h, CTG-3D normalised to day-0 seeding control.
# Conditions: 10 µM; days in culture: 65
row,SMILES,CTG-3D luminescence at 96 h
1,COc1cc2c(Oc3ccc4[nH]c(C)cc4c3F)ncnc2cc1OCCCN1CCCC1 [cediranib],0.593
2,CC(C)n1nc(-c2ccc3oc(N)nc3c2)c2c(N)ncnc21 [sapanisertib],0.0873
3,Cc1cc(Nc2ncnc3ccc(NC4=NC(C)(C)CO4)cc23)ccc1Oc1ccn2ncnc2c1 [tucatinib],1.4
4,C[C@H](NC(=O)CCC(F)(F)F)C(=O)N[C@@H]1C(=O)N(CCO)c2ncccc2-c2ccccc21 [crenigacestat],1.6
5,C[C@]12CC[C@@H]3c4ccc(O)cc4C[C@@H](CCCCCCCCC[S+]([O-])CCCC(F)(F)C(F)(F)F)[C@H]3[C@@H]1CC[C@@H]2O (some centres not stated) [fulvestrant],1.86
6,O=C(c1ccc(F)c(F)c1Nc1ccc(I)cc1F)N1CC(O)([C@@H]2CCCCN2)C1 [cobimetinib],1.18
7,O=C(/C=C/c1cccnc1)NCCCCC1CCN(C(=O)c2ccccc2)CC1 [FK866],0.202
8,CS(=O)(=O)c1ccc(C(=O)Nc2ccc(Cl)c(-c3ccccn3)c2)c(Cl)c1 [vismodegib],1.5
9,C=CCn1c(=O)c2cnc(Nc3ccc(N4CCN(C)CC4)cc3)nc2n1-c1cccc(C(C)(C)O)n1 [adavosertib],0.276

# Same assay, conditions: 10 µM; days in culture: 103
row,SMILES,CTG-3D luminescence at 96 h
1,COc1cc2c(Oc3ccc4[nH]c(C)cc4c3F)ncnc2cc1OCCCN1CCCC1 [cediranib],0.461
2,CC(C)n1nc(-c2ccc3oc(N)nc3c2)c2c(N)ncnc21 [sapanisertib],0.555
3,Cc1cc(Nc2ncnc3ccc(NC4=NC(C)(C)CO4)cc23)ccc1Oc1ccn2ncnc2c1 [tucatinib],2.84
4,C[C@H](NC(=O)CCC(F)(F)F)C(=O)N[C@@H]1C(=O)N(CCO)c2ncccc2-c2ccccc21 [crenigacestat],2.87
5,C[C@]12CC[C@@H]3c4ccc(O)cc4C[C@@H](CCCCCCCCC[S+]([O-])CCCC(F)(F)C(F)(F)F)[C@H]3[C@@H]1CC[C@@H]2O (some centres not stated) [fulvestrant],3.15
6,O=C(c1ccc(F)c(F)c1Nc1ccc(I)cc1F)N1CC(O)([C@@H]2CCCCN2)C1 [cobimetinib],1.92
7,O=C(/C=C/c1cccnc1)NCCCCC1CCN(C(=O)c2ccccc2)CC1 [FK866],0.705
8,CS(=O)(=O)c1ccc(C(=O)Nc2ccc(Cl)c(-c3ccccn3)c2)c(Cl)c1 [vismodegib],2.62
9,C=CCn1c(=O)c2cnc(Nc3ccc(N4CCN(C)CC4)cc3)nc2n1-c1cccc(C(C)(C)O)n1 [adavosertib],0.459

# Same assay, conditions: 100 µM; days in culture: 52
row,SMILES,CTG-3D luminescence at 96 h
1,COc1cc2c(Oc3ccc4[nH]c(C)cc4c3F)ncnc2cc1OCCCN1CCCC1 [cediranib],-0.0298
2,CC(C)n1nc(-c2ccc3oc(N)nc3c2)c2c(N)ncnc21 [sapanisertib],0.011
3,Cc1cc(Nc2ncnc3ccc(NC4=NC(C)(C)CO4)cc23)ccc1Oc1ccn2ncnc2c1 [tucatinib],0.0134
4,C[C@H](NC(=O)CCC(F)(F)F)C(=O)N[C@@H]1C(=O)N(CCO)c2ncccc2-c2ccccc21 [crenigacestat],2.04
5,C[C@]12CC[C@@H]3c4ccc(O)cc4C[C@@H](CCCCCCCCC[S+]([O-])CCCC(F)(F)C(F)(F)F)[C@H]3[C@@H]1CC[C@@H]2O (some centres not stated) [fulvestrant],1.97
6,O=C(c1ccc(F)c(F)c1Nc1ccc(I)cc1F)N1CC(O)([C@@H]2CCCCN2)C1 [cobimetinib],0.00712
7,O=C(/C=C/c1cccnc1)NCCCCC1CCN(C(=O)c2ccccc2)CC1 [FK866],0.119
8,CS(=O)(=O)c1ccc(C(=O)Nc2ccc(Cl)c(-c3ccccn3)c2)c(Cl)c1 [vismodegib],0.825
9,C=CCn1c(=O)c2cnc(Nc3ccc(N4CCN(C)CC4)cc3)nc2n1-c1cccc(C(C)(C)O)n1 [adavosertib],0.0806

# Same assay, conditions: 100 µM; days in culture: 65
row,SMILES,CTG-3D luminescence at 96 h
1,COc1cc2c(Oc3ccc4[nH]c(C)cc4c3F)ncnc2cc1OCCCN1CCCC1 [cediranib],-0.00161
2,CC(C)n1nc(-c2ccc3oc(N)nc3c2)c2c(N)ncnc21 [sapanisertib],0.00591
3,Cc1cc(Nc2ncnc3ccc(NC4=NC(C)(C)CO4)cc23)ccc1Oc1ccn2ncnc2c1 [tucatinib],0.008
4,C[C@H](NC(=O)CCC(F)(F)F)C(=O)N[C@@H]1C(=O)N(CCO)c2ncccc2-c2ccccc21 [crenigacestat],1.45
5,C[C@]12CC[C@@H]3c4ccc(O)cc4C[C@@H](CCCCCCCCC[S+]([O-])CCCC(F)(F)C(F)(F)F)[C@H]3[C@@H]1CC[C@@H]2O (some centres not stated) [fulvestrant],1.66
6,O=C(c1ccc(F)c(F)c1Nc1ccc(I)cc1F)N1CC(O)([C@@H]2CCCCN2)C1 [cobimetinib],0.00337
7,O=C(/C=C/c1cccnc1)NCCCCC1CCN(C(=O)c2ccccc2)CC1 [FK866],0.166
8,CS(=O)(=O)c1ccc(C(=O)Nc2ccc(Cl)c(-c3ccccn3)c2)c(Cl)c1 [vismodegib],0.574
9,C=CCn1c(=O)c2cnc(Nc3ccc(N4CCN(C)CC4)cc3)nc2n1-c1cccc(C(C)(C)O)n1 [adavosertib],0.126

# Same assay, conditions: 100 µM; days in culture: 103
row,SMILES,CTG-3D luminescence at 96 h
1,COc1cc2c(Oc3ccc4[nH]c(C)cc4c3F)ncnc2cc1OCCCN1CCCC1 [cediranib],-0.00732
2,CC(C)n1nc(-c2ccc3oc(N)nc3c2)c2c(N)ncnc21 [sapanisertib],-0.00132
3,Cc1cc(Nc2ncnc3ccc(NC4=NC(C)(C)CO4)cc23)ccc1Oc1ccn2ncnc2c1 [tucatinib],0.014
4,C[C@H](NC(=O)CCC(F)(F)F)C(=O)N[C@@H]1C(=O)N(CCO)c2ncccc2-c2ccccc21 [crenigacestat],2.58
5,C[C@]12CC[C@@H]3c4ccc(O)cc4C[C@@H](CCCCCCCCC[S+]([O-])CCCC(F)(F)C(F)(F)F)[C@H]3[C@@H]1CC[C@@H]2O (some centres not stated) [fulvestrant],2.99
6,O=C(c1ccc(F)c(F)c1Nc1ccc(I)cc1F)N1CC(O)([C@@H]2CCCCN2)C1 [cobimetinib],0.00125
7,O=C(/C=C/c1cccnc1)NCCCCC1CCN(C(=O)c2ccccc2)CC1 [FK866],0.347
8,CS(=O)(=O)c1ccc(C(=O)Nc2ccc(Cl)c(-c3ccccn3)c2)c(Cl)c1 [vismodegib],1.52
9,C=CCn1c(=O)c2cnc(Nc3ccc(N4CCN(C)CC4)cc3)nc2n1-c1cccc(C(C)(C)O)n1 [adavosertib],0.242

# Same assay, conditions: 625 fM; days in culture: 52
row,SMILES,CTG-3D luminescence at 96 h
1,COc1cc2c(Oc3ccc4[nH]c(C)cc4c3F)ncnc2cc1OCCCN1CCCC1 [cediranib],2.13
2,CC(C)n1nc(-c2ccc3oc(N)nc3c2)c2c(N)ncnc21 [sapanisertib],2.4
3,Cc1cc(Nc2ncnc3ccc(NC4=NC(C)(C)CO4)cc23)ccc1Oc1ccn2ncnc2c1 [tucatinib],2.34
4,C[C@H](NC(=O)CCC(F)(F)F)C(=O)N[C@@H]1C(=O)N(CCO)c2ncccc2-c2ccccc21 [crenigacestat],2
5,C[C@]12CC[C@@H]3c4ccc(O)cc4C[C@@H](CCCCCCCCC[S+]([O-])CCCC(F)(F)C(F)(F)F)[C@H]3[C@@H]1CC[C@@H]2O (some centres not stated) [fulvestrant],2.06
6,O=C(c1ccc(F)c(F)c1Nc1ccc(I)cc1F)N1CC(O)([C@@H]2CCCCN2)C1 [cobimetinib],2.57
7,O=C(/C=C/c1cccnc1)NCCCCC1CCN(C(=O)c2ccccc2)CC1 [FK866],2.36
8,CS(=O)(=O)c1ccc(C(=O)Nc2ccc(Cl)c(-c3ccccn3)c2)c(Cl)c1 [vismodegib],1.78
9,C=CCn1c(=O)c2cnc(Nc3ccc(N4CCN(C)CC4)cc3)nc2n1-c1cccc(C(C)(C)O)n1 [adavosertib],2.17

# Same assay, conditions: 625 fM; days in culture: 65
row,SMILES,CTG-3D luminescence at 96 h
1,COc1cc2c(Oc3ccc4[nH]c(C)cc4c3F)ncnc2cc1OCCCN1CCCC1 [cediranib],1.63
2,CC(C)n1nc(-c2ccc3oc(N)nc3c2)c2c(N)ncnc21 [sapanisertib],1.71
3,Cc1cc(Nc2ncnc3ccc(NC4=NC(C)(C)CO4)cc23)ccc1Oc1ccn2ncnc2c1 [tucatinib],1.64
4,C[C@H](NC(=O)CCC(F)(F)F)C(=O)N[C@@H]1C(=O)N(CCO)c2ncccc2-c2ccccc21 [crenigacestat],1.67
5,C[C@]12CC[C@@H]3c4ccc(O)cc4C[C@@H](CCCCCCCCC[S+]([O-])CCCC(F)(F)C(F)(F)F)[C@H]3[C@@H]1CC[C@@H]2O (some centres not stated) [fulvestrant],1.76
6,O=C(c1ccc(F)c(F)c1Nc1ccc(I)cc1F)N1CC(O)([C@@H]2CCCCN2)C1 [cobimetinib],1.61
7,O=C(/C=C/c1cccnc1)NCCCCC1CCN(C(=O)c2ccccc2)CC1 [FK866],1.66
8,CS(=O)(=O)c1ccc(C(=O)Nc2ccc(Cl)c(-c3ccccn3)c2)c(Cl)c1 [vismodegib],1.59
9,C=CCn1c(=O)c2cnc(Nc3ccc(N4CCN(C)CC4)cc3)nc2n1-c1cccc(C(C)(C)O)n1 [adavosertib],1.61

# Same assay, conditions: 625 fM; days in culture: 103
row,SMILES,CTG-3D luminescence at 96 h
1,COc1cc2c(Oc3ccc4[nH]c(C)cc4c3F)ncnc2cc1OCCCN1CCCC1 [cediranib],3.19
2,CC(C)n1nc(-c2ccc3oc(N)nc3c2)c2c(N)ncnc21 [sapanisertib],3.02
3,Cc1cc(Nc2ncnc3ccc(NC4=NC(C)(C)CO4)cc23)ccc1Oc1ccn2ncnc2c1 [tucatinib],3.37
4,C[C@H](NC(=O)CCC(F)(F)F)C(=O)N[C@@H]1C(=O)N(CCO)c2ncccc2-c2ccccc21 [crenigacestat],2.85
5,C[C@]12CC[C@@H]3c4ccc(O)cc4C[C@@H](CCCCCCCCC[S+]([O-])CCCC(F)(F)C(F)(F)F)[C@H]3[C@@H]1CC[C@@H]2O (some centres not stated) [fulvestrant],3.29
6,O=C(c1ccc(F)c(F)c1Nc1ccc(I)cc1F)N1CC(O)([C@@H]2CCCCN2)C1 [cobimetinib],3.51
7,O=C(/C=C/c1cccnc1)NCCCCC1CCN(C(=O)c2ccccc2)CC1 [FK866],3.29
8,CS(=O)(=O)c1ccc(C(=O)Nc2ccc(Cl)c(-c3ccccn3)c2)c(Cl)c1 [vismodegib],2.8
9,C=CCn1c(=O)c2cnc(Nc3ccc(N4CCN(C)CC4)cc3)nc2n1-c1cccc(C(C)(C)O)n1 [adavosertib],3.13

# From the supplement of paper PMC8882468
